Results: patent US11292788B2, “IL-17 and IFN-gamma inhibition for the treatment of autoimmune diseases and chronic inflammation” (Immunic AG, priority 2017, dated 2022)
Where two headings read alike, the source gives them in different places.

What was measured:
Assay type in all cases: cell-based
IL-17A = assay: Cytokine assay: IL-17A production by human PBMC stimulated with PHA; settings: IC50 class, read-out: IL-17A Inhib.
Method: (§1) Cytokine Assay: Analysis of Proliferation of and Cytokine Production by Human PBMC Stimulated with PHA
(§2) Peripheral blood mononuclear cells (PBMC) from healthy human donors were purified using Accuspin™ System-Histopaque-1077 (Sigma) according to the protocol recommended by the manufacturer. Purified PBMC were then washed twice with phosphate-buffered saline (PBS) and resuspended in RPMI1640 culture medium supplemented with 10% dialyzed heat inactivated fetal calf serum, 1.5 mM L-glutamine, 100 U penicillin/ml, and […] (all from PAN Biotech, Aidenbach, Germany). For stimulation, PBMC were seeded at 1×10^5 cells/well, activated with 2 μg/ml phytohaemagglutinin (PHA, Sigma) and incubated with the test compounds for 48 hours. IL-17A, IL-17F and INF-γ were then determined in the culture supernatant using a Luminex BioPlex system, following the manufacturer's instructions (BioRad, Munich, Germany). For screening, compounds were used at 10, 1, 0.1 and 0.01 μM. To determine the IC50, compounds were titrated semilogarithmically.
(§3) Cytokines were determined in the aforementioned culture supernatant using the following methods: IL-17A was measured using the human homodimer IL-17A ELISA Ready Set Go Kit from eBioscience (Frankfurt, Germany); IL-17F using the human IL-17F ELI-Pair from Hölzel DiagnosticaGmBH (Köln, Germany); and IFN-γ using the OptEIA human IFN-g ELISA from BD Bioscience (Heidelberg, Germany), all following the manufacturer's instructions.

INF-γ = assay: Cytokine assay: INF-γ production by human PBMC stimulated with PHA; settings: IC50 class, read-out: IFN-gamma Inhib.
Method: as §1, §2, §3

IL-17F = assay: Cytokine assay: IL-17F production by human PBMC stimulated with PHA; settings: IC50 class, read-out: IL-17F Inhib.
Method: as §1, §2, §3

SMILES | IC50 (IL-17A; Homo sapiens, PBMC) | IC50 (INF-γ; Homo sapiens, PBMC) | IC50 (IL-17F; Homo sapiens, PBMC) | IC50 (IL-17A) | IC50 (INF-γ) | IC50 (IL-17F)
C[C@]1(O)C[C@H](n2ncc(-c3onc(-c4c(F)cccc4Cl)c3C(=O)OC3CC3)c2C(F)(F)F)C1 [Example 50, cyclopropyl 3-(2-chloro-6-fluorophenyl)-5-(1-(3-hydroxy-3-methylcyclobutyl)-5-(trifluoromethyl)-1H-pyrazol-4-yl)isoxazole-4-carboxylate] | 50 to 500 nM | < 50 nM | < 50 nM | – | – | –
Cc1c(-c2onc(-c3ccccc3Cl)c2C(=O)OC2CC2)cnn1[C@H]1C[C@@](C)(O)C1 [Example 54, cyclopropyl 3-(2-chlorophenyl)-5-{5-methyl-1-[3-hydroxy-3-methylcyclobutyl]-1H-pyrazol-4-yl}-1,2-oxazole-4-carboxylate] | – | – | – | 500 to 5000 nM | 50 to 500 nM | 500 to 5000 nM
COCc1c(-c2c(F)cccc2Cl)noc1-c1cnn(C[C@H](C)O)c1C(F)(F)F [Example 68, (2S)-1-(4-(3-(2-chloro-6-fluorophenyl)-4-(methoxymethyl)isoxazol-5-yl)-5-(trifluoromethyl)-1H-pyrazol-1-yl)propan-2-ol] | 500 to 5000 nM | 50 to 500 nM | 500 to 5000 nM | – | – | –
COCc1c(-c2ccccc2Cl)noc1-c1cnn([C@H]2C[C@@](C)(O)C2)c1C [Example 72, 3-{4-[3-(2-chlorophenyl)-4-(methoxymethyl)-1,2-oxazol-5-yl]-5-methyl-1H-pyrazol-1-yl}-1-methylcyclobutan-1-ol] | 50 to 500 nM | < 50 nM | 50 to 500 nM | – | – | –
COCc1c(-c2ccccc2Cl)noc1-c1cnn([C@H]2C[C@@](C)(O)C2)c1C(F)(F)F [Example 74, 3-(4-(3-(2-chlorophenyl)-4-(methoxymethyl)isoxazol-5-yl)-5-(trifluoromethyl)-1H-pyrazol-1-yl)-1-methylcyclobutan-1-ol] | 50 to 500 nM | 50 to 500 nM | 50 to 500 nM | – | – | –
COCCOCc1c(-c2ccccc2Cl)noc1-c1cnn(C[C@H](C)O)c1C(F)(F)F [Example 75, (2S)-1-{4-[3-(2-chlorophenyl)-4-[(2-methoxyethoxy)methyl]-1,2-oxazol-5-yl]-5-(trifluoromethyl)-1H-pyrazol-1-yl}propan-2-ol] | 500 to 5000 nM | 500 to 5000 nM | 500 to 5000 nM | – | – | –
Cc1c(-c2onc(-c3ccccc3Cl)c2COC2CC2)cnn1[C@H]1C[C@](C)(O)C1 [Example 81, 3-{4-[3-(2-chlorophenyl)-4-(cyclopropoxymethyl)-1,2-oxazol-5-yl]-5-methyl-1H-pyrazol-1-yl}-1-methylcyclobutan-1-ol] | 500 to 5000 nM | 50 to 500 nM | 500 to 5000 nM | – | – | –
Cc1c(-c2onc(-c3c(F)cccc3Cl)c2COC2CC2)cnn1[C@H]1C[C@](C)(O)C1 [Example 84, 3-{4-[3-(2-chloro-6-fluorophenyl)-4-(cyclopropoxymethyl)-1,2-oxazol-5-yl]-5-methyl-1H-pyrazol-1-yl}-1-methylcyclobutan-1-ol] | 50 to 500 nM | 50 to 500 nM | 50 to 500 nM | – | – | –
COc1cccc(-c2noc(-c3cnn(CCC(C)(C)O)c3C(F)(F)F)c2COC2CC2)c1Cl [Example 91, 4-{4-[3-(2-chloro-3-methoxyphenyl)-4-(cyclopropoxymethyl)-1,2-oxazol-5-yl]-5-(trifluoromethyl)-1H-pyrazol-1-yl}-2-methylbutan-2-ol] | < 50 nM | < 50 nM | < 50 nM | – | – | –
C[C@@H](O)Cn1ncc(-c2cc(-c3c(F)cccc3Cl)no2)c1C(F)(F)F [Example 94, (2R)-1-(4-(3-(2-chloro-6-fluorophenyl)isoxazol-5-yl)-5-(trifluoromethyl)-1H-pyrazol-1-yl)propan-2-ol] | ≥ 5000 nM | 500 to 5000 nM | ≥ 5000 nM | – | – | –

More lines, now with the values ahead:

IC50 (IL-17A; Homo sapiens, PBMC) | IC50 (INF-γ; Homo sapiens, PBMC) | IC50 (IL-17F; Homo sapiens, PBMC) | IC50 (IL-17A) | IC50 (INF-γ) | IC50 (IL-17F) | SMILES
50 to 500 nM | 50 to 500 nM | 50 to 500 nM | – | – | – | Cc1c(-c2onc(-c3ccccc3Cl)c2C(=O)OC2COC2)cnn1[C@H]1C[C@@](C)(O)C1 [Example 52, oxetan-3-yl 3-(2-chlorophenyl)-5-(1-(3-hydroxy-3-methylcyclobutyl)-5-methyl-1H-pyrazol-4-yl)isoxazole-4-carboxylate]
500 to 5000 nM | 50 to 500 nM | 50 to 500 nM | – | – | – | CC(C)(O)Cn1ncc(-c2onc(-c3c(F)cccc3Cl)c2C(=O)OC2COC2)c1C(F)(F)F [Example 57, oxetan-3-yl 3-(2-chloro-6-fluorophenyl)-5-[1-(2-hydroxy-2-methylpropyl)-5-(trifluoromethyl)-1H-pyrazol-4-yl]-1,2-oxazole-4-carboxylate]
≥ 5000 nM | ≥ 5000 nM | ≥ 5000 nM | – | – | – | CC(C)(O)Cn1ncc(-c2onc(-c3c(F)cccc3Cl)c2CO)c1C(F)(F)F [Example 63, 1-(4-(3-(2-chloro-6-fluorophenyl)-4-(hydroxymethyl)isoxazol-5-yl)-5-(trifluoromethyl)-1H-pyrazol-1-yl)-2-methylpropan-2-ol]
≥ 5000 nM | 500 to 5000 nM | ≥ 5000 nM | – | – | – | C[C@]1(O)C[C@@H](n2ncc(-c3onc(-c4ccccc4Cl)c3CO)c2C(F)(F)F)C1 [Example 64, 3-(4-(3-(2-chlorophenyl)-4-(hydroxymethyl)-1,2-oxazol-5-yl)-5-(trifluoromethyl)-1H-pyrazol-1-yl)-1-methylcyclobutan-1-ol]
500 to 5000 nM | 500 to 5000 nM | 500 to 5000 nM | – | – | – | COCc1c(-c2ccccc2Cl)noc1-c1cnn([C@H]2C[C@](C)(O)C2)c1C [Example 73, 3-{4-[3-(2-chlorophenyl)-4-(methoxymethyl)-1,2-oxazol-5-yl]-5-methyl-1H-pyrazol-1-yl}-1-methylcyclobutan-1-ol]
50 to 500 nM | < 50 nM | 50 to 500 nM | – | – | – | Cc1c(-c2onc(-c3ccccc3Cl)c2COC2CC2)cnn1CCC(C)(C)O [Example 79, 4-{4-[3-(2-chlorophenyl)-4-(cyclopropoxymethyl)-1,2-oxazol-5-yl]-5-methyl-1H-pyrazol-1-yl}-2-methylbutan-2-ol]
≥ 5000 nM | 500 to 5000 nM | 500 to 5000 nM | – | – | – | C[C@H](O)Cn1ncc(-c2onc(-c3ccccc3Cl)c2COC2COC2)c1C(F)(F)F [Example 88, (S)-1-(4-(3-(2-chlorophenyl)-4-((oxetan-3-yloxy)methyl)isoxazol-5-yl)-5-(trifluoromethyl)-1H-pyrazol-1-yl)propan-2-ol]
500 to 5000 nM | 50 to 500 nM | 50 to 500 nM | – | – | – | COC(=O)c1c(-c2cccnc2O)noc1-c1cnn(CC(C)(C)O)c1C(F)(F)F [Example 93, methyl 5-[1-(2-hydroxy-2-methylpropyl)-5-(trifluoromethyl)-1H-pyrazol-4-yl]-3-(2-hydroxypyridin-3-yl)-1,2-oxazole-4-carboxylate]
500 to 5000 nM | 50 to 500 nM | 500 to 5000 nM | – | – | – | C[C@H](O)Cn1ncc(-c2onc(-c3ccccc3Cl)c2C2CCCO2)c1C(F)(F)F (stereo partly drawn) [Example 96, (2S)-1-{4-[3-(2-chlorophenyl)-4-(oxolan-2-yl)-1,2-oxazol-5-yl]-5-(trifluoromethyl)-1H-pyrazol-1-yl}propan-2-ol]
– | – | – | 500 to 5000 nM | 50 to 500 nM | 50 to 500 nM | C[C@]1(O)C[C@@H](n2ncc(-c3onc(-c4c(F)cccc4Cl)c3-c3ccncn3)c2C(F)(F)F)C1 [Example 105, 3-{4-[3-(2-chloro-6-fluorophenyl)-4-(pyrimidin-4-yl)-1,2-oxazol-5-yl]-5-(trifluoromethyl)-1H-pyrazol-1-yl}-1-methylcyclobutan-1-ol]
50 to 500 nM | < 50 nM | 50 to 500 nM | – | – | – | Cc1c(-c2onc(-c3ccccc3Cl)c2-c2ccncn2)cnn1[C@H]1C[C@@](C)(O)C1 [Example 107, 3-{4-[3-(2-chlorophenyl)-4-(pyrimidin-4-yl)-1,2-oxazol-5-yl]-5-methyl-1H-pyrazol-1-yl}-1-methylcyclobutan-1-ol]
50 to 500 nM | 50 to 500 nM | 50 to 500 nM | – | – | – | Cc1c(-c2onc(-c3c(F)cccc3Cl)c2-c2ccncn2)cnn1[C@H]1C[C@@](C)(O)C1 [Example 108, 3-{4-[3-(2-chloro-6-fluorophenyl)-4-(pyrimidin-4-yl)-1,2-oxazol-5-yl]-5-methyl-1H-pyrazol-1-yl}-1-methylcyclobutan-1-ol]
500 to 5000 nM | 50 to 500 nM | 500 to 5000 nM | – | – | – | Cc1c(-c2onc(-c3ccccc3Cl)c2-c2cnccn2)cnn1[C@H]1C[C@@](C)(O)C1 [Example 109, 3-{4-[3-(2-chlorophenyl)-4-(pyrazin-2-yl)-1,2-oxazol-5-yl]-5-methyl-1H-pyrazol-1-yl}-1-methylcyclobutan-1-ol]
500 to 5000 nM | 500 to 5000 nM | 50 to 500 nM | – | – | – | COc1ccccc1-c1noc(-c2cnn(C[C@@H](C)O)c2C(F)(F)F)c1-c1ncccn1 [Example 113, (2R)-1-{4-[3-(2-methoxyphenyl)-4-(pyrimidin-2-yl)-1,2-oxazol-5-yl]-5-(trifluoromethyl)-1H-pyrazol-1-yl}propan-2-ol]
